The results in this text go back to patent US11986532B2 (Arvinas Operations, Inc., priority 2021, dated 2024).

For the assay, the target named is T1, BCL6 (Homo sapiens, UniProt P41182).
T1 construct: endogenous in cells; host or cells: T47D breast cancer epithelial cells
In words: Immunofluorescence protocol for high content imaging of BCL6 (degradation) in T47D cells, 3 days compound treatment. In kind it is cell-based. As to conditions: for Dmax: T47D, read-out: Mean Dmax (%)** category; for DC50: read-out: Mean DC50 (nM)* category. In short, it runs like this:
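High content immunofluorescence imaging (10×, 4 fields/well) of BCL6 using rabbit primary antibody, Alexa-488 secondary, cell mask and Hoechst nuclear stain after PFA fixation. Before staining, T47D cells (7K/well) were exposed for 3 days at 37° C to 3-fold serial dilutions of compound, top final concentration 0.1 or 1 μM.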

The structures appear in SMILES notation. Some results are limits rather than exact numbers.

With `CNC(=O)COc1cc2cc(Nc3cc(N4CCC(O[C@H]5C[C@H](N6CCC(c7ccc8c(c7F)CN(C7CCC(=O)NC7=O)C8=O)CC6)C5)CC4)ncc3Cl)ccc2n(C(C)C)c1=O` (stereo partly shown) [Compound 258, 2-({6-[(5-chloro-2-{4-[(1r,3r)-3-{4-[2-(2,6-dioxopiperidin-3-yl)-4-fluoro-1-oxo-2,3-dihydro-1H-isoindol-5-yl]piperidin-1-yl}cyclobutoxy]piperidin-1-yl}pyridin-4-yl)amino]-2-oxo-1-(propan-2-yl)-1,2-dihydroquinolin-3-yl}oxy)-N-methylacetamide], the maximal degradation (Dmax) was 50 to 70% and the DC50 is less than 10 nM.
With `CNC(=O)COc1cc2c(F)c(Nc3cc(N4CCC(F)(CN5CCC6(CC5)CN(c5ccc7c(c5F)CN(C5CCC(=O)NC5=O)C7=O)C6)CC4)ncc3Cl)ccc2n(C(C)C)c1=O` (stereo not shown) [Compound 259, 2-{[6-({5-chloro-2-[4-({2-[2-(2,6-dioxopiperidin-3-yl)-4-fluoro-1-oxo-2,3-dihydro-1H-isoindol-5-yl]-2,7-diazaspiro[3.5]nonan-7-yl}methyl)-4-fluoropiperidin-1-yl]pyridin-4-yl}amino)-5-fluoro-2-oxo-1-(propan-2-yl)-1,2-dihydroquinolin-3-yl]oxy}-N-methylacetamide], the Dmax was 50 to 70% and the DC50 is less than 10 nM.
On to `CNC(=O)COc1cc2cc(Nc3nc(N4CCC(OC5CN(C6CCN(c7ccc8c(c7F)CN(C7CCC(=O)NC7=O)C8=O)CC6)C5)CC4)ncc3Cl)ccc2n(C(C)C)c1=O` (stereo not shown) [Compound 260, 2-({6-[(5-chloro-2-{4-[(1-{1-[2-(2,6-dioxopiperidin-3-yl)-4-fluoro-1-oxo-2,3-dihydro-1H-isoindol-5-yl]piperidin-4-yl}azetidin-3-yl)oxy]piperidin-1-yl}pyrimidin-4-yl)amino]-2-oxo-1-(propan-2-yl)-1,2-dihydroquinolin-3-yl}oxy)-N-methylacetamide], for which the Dmax fell in the range of 50 to 70% and the DC50 was less than 10 nM.
Regarding `CNC(=O)COc1cc2cc(Nc3nc(N4CCC(O[C@H]5C[C@H](N6CCN(c7ccc8c(c7)C(=O)N(C7CCC(=O)NC7=O)C8=O)C[C@@H]6C)C5)CC4)ncc3Cl)ccc2n(C(C)C)c1=O` (stereo partly drawn) [Compound 261, 2-({6-[(5-chloro-2-{4-[(1r,3r)-3-[(2S)-4-[2-(2,6-dioxopiperidin-3-yl)-1,3-dioxo-2,3-dihydro-1H-isoindol-5-yl]-2-methylpiperazin-1-yl]cyclobutoxy]piperidin-1-yl}pyrimidin-4-yl)amino]-2-oxo-1-(propan-2-yl)-1,2-dihydroquinolin-3-yl}oxy)-N-methylacetamide], the greatest degradation seen (Dmax) was in the range of 50 to 70% and the DC50 lay in the range of 10 to 50 nM.
For `CNC(=O)COc1cc2c(F)c(Nc3cc(N4CCC(F)(CN5CCC6(CC5)CN(c5ccc7c(c5)CN(C5CCC(=O)NC5=O)C7=O)C6)CC4)ncc3Cl)ccc2n(C(C)C)c1=O` (stereo not shown) [Compound 262, 2-{[6-({5-chloro-2-[4-({2-[2-(2,6-dioxopiperidin-3-yl)-1-oxo-2,3-dihydro-1H-isoindol-5-yl]-2,7-diazaspiro[3.5]nonan-7-yl}methyl)-4-fluoropiperidin-1-yl]pyridin-4-yl}amino)-5-fluoro-2-oxo-1-(propan-2-yl)-1,2-dihydroquinolin-3-yl]oxy}-N-methylacetamide], in that order: 50 to 70% and less than 10 nM.
On the same counts, the results for `CNC(=O)COc1cc2cc(Nc3nc(N4CCC(O[C@H]5C[C@H](N6CCN(c7ccc8c(c7)C(=O)N(C7CCC(=O)NC7=O)C8=O)C[C@H]6C)C5)CC4)ncc3Cl)ccc2n(C(C)C)c1=O` (stereo partly drawn) [Compound 263, 2-({6-[(5-chloro-2-{4-[(1r,3r)-3-[(2R)-4-[2-(2,6-dioxopiperidin-3-yl)-1,3-dioxo-2,3-dihydro-1H-isoindol-5-yl]-2-methylpiperazin-1-yl]cyclobutoxy]piperidin-1-yl}pyrimidin-4-yl)amino]-2-oxo-1-(propan-2-yl)-1,2-dihydroquinolin-3-yl}oxy)-N-methylacetamide] are 50 to 70% and less than 10 nM.
In the case of `CC(C)n1c(=O)c(OCC(=O)O)cc2cc(Nc3nc(N4CCC(O[C@H]5C[C@H](N6CCC(c7ccc8c(c7F)CN(C7CCC(=O)NC7=O)C8=O)CC6)C5)CC4)ncc3Cl)ccc21` (stereo partly shown) [Compound 264, 2-({6-[(5-chloro-2-{4-[(1r,3r)-3-{4-[2-(2,6-dioxopiperidin-3-yl)-4-fluoro-1-oxo-2,3-dihydro-1H-isoindol-5-yl]piperidin-1-yl}cyclobutoxy]piperidin-1-yl}pyrimidin-4-yl)amino]-2-oxo-1-(propan-2-yl)-1,2-dihydroquinolin-3-yl}oxy)acetic acid], the Dmax is no less than 70% and the DC50 is less than 10 nM.
For the compound `CC(C)n1c(=O)c(OCC(=O)N(C)O)cc2cc(Nc3nc(N4CCC(O[C@H]5C[C@H](N6CCC(c7ccc8c(c7F)CN(C7CCC(=O)NC7=O)C8=O)CC6)C5)CC4)ncc3Cl)ccc21` (stereo partly shown) [Compound 265, 2-({6-[(5-chloro-2-{4-[(1r,3r)-3-{4-[2-(2,6-dioxopiperidin-3-yl)-4-fluoro-1-oxo-2,3-dihydro-1H-isoindol-5-yl]piperidin-1-yl}cyclobutoxy]piperidin-1-yl}pyrimidin-4-yl)amino]-2-oxo-1-(propan-2-yl)-1,2-dihydroquinolin-3-yl}oxy)-N-hydroxy-N-methylacetamide], the Dmax was no less than 70% and the DC50 is less than 10 nM.
Turning to `CNC(=O)COc1cc2cc(Nc3nc(N4CCC(O[C@H]5C[C@H](N6CCN(c7c(OC)cc8c(c7C)C(=O)N(C7CCC(=O)NC7=O)C8=O)CC6)C5)CC4)ncc3Cl)ccc2n(C(C)C)c1=O` (stereo partly shown) [Compound 266, 2-({6-[(5-chloro-2-{4-[(1r,3r)-3-{4-[2-(2,6-dioxopiperidin-3-yl)-6-methoxy-4-methyl-1,3-dioxo-2,3-dihydro-1H-isoindol-5-yl]piperazin-1-yl}cyclobutoxy]piperidin-1-yl}pyrimidin-4-yl)amino]-2-oxo-1-(propan-2-yl)-1,2-dihydroquinolin-3-yl}oxy)-N-methylacetamide], the Dmax was no less than 70% and the DC50 is less than 10 nM.
As to `CNC(=O)COc1cc2cc(Nc3nc(N4CCC(O[C@H]5C[C@H](N6CCN(c7ccc8c(c7Cl)CN([C@H]7CCC(=O)NC7=O)C8=O)[C@H](C)C6)C5)CC4)ncc3Cl)ccc2n(C(C)C)c1=O` [Compound 267, 2-({6-[(5-chloro-2-{4-[(1r,3r)-3-[(3R)-4-{4-chloro-2-[(3S)-2,6-dioxopiperidin-3-yl]-1-oxo-3H-isoindol-5-yl}-3-methylpiperazin-1-yl]cyclobutoxy]piperidin-1-yl}pyrimidin-4-yl)amino]-1-isopropyl-2-oxoquinolin-3-yl}oxy)-N-methylacetamide], the Dmax is 50 to 70% and the DC50 is less than 10 nM.
As for `CNC(=O)COc1cc2cc(Nc3nc(N4CCC(O[C@H]5C[C@H](N6CCN(c7ccc8c(c7Cl)CN([C@@H]7CCC(=O)NC7=O)C8=O)[C@H](C)C6)C5)CC4)ncc3Cl)ccc2n(C(C)C)c1=O` [Compound 268, 2-({6-[(5-chloro-2-{4-[(1r,3r)-3-[(3R)-4-{4-chloro-2-[(3R)-2,6-dioxopiperidin-3-yl]-1-oxo-3H-isoindol-5-yl}-3-methylpiperazin-1-yl]cyclobutoxy]piperidin-1-yl}pyrimidin-4-yl)amino]-1-isopropyl-2-oxoquinolin-3-yl}oxy)-N-methylacetamide], the Dmax was no less than 70% and the DC50 is less than 10 nM.

The term Dmax denotes the greatest extent of degradation seen. As a reminder, the DC50 is the concentration at which degradation of the target reaches its halfway point.
